Data: ChEMBL document CHEMBL3217675, “Diaryl ureaLDV peptidomimetics as 41integrin antagonists: synthesis, adhesion inhibition and toxicity evaluation on CCRF-CEM cell line” (Medchemcomm, 2012)
Active and inactive are the calls of the source. The rule behind the calls is not given here.

Tests used:
Integrin alpha-4/beta-1 [1] = target: T1, Integrin alpha-4/beta-1 (Homo sapiens, UniProt P05556+P13612); assay: Antagonist activity at integrin alpha4beta1 receptor in human CCRF-CEM cells assessed as inhibition of cell adhesion to fibronectin after 1 hr by calcein AM staining-based fluorescence assay
CCRF-CEM [2] = assay: Cytotoxicity against human CCRF-CEM cells assessed as cell viability up to 200 uM after 24 hrs by propidium iodide staining-based flow cytometric analysis
CCRF-CEM [3] = assay: Cytotoxicity against human CCRF-CEM cells assessed as cell viability at 1 to 500 uM after 24 hrs by propidium iodide staining-based flow cytometric analysis
Integrin alpha-4/beta-1 [4] = target: T1, Integrin alpha-4/beta-1; assay: Antagonist activity at integrin alpha4beta1 receptor in human CCRF-CEM cells assessed as detachment of adherent cell from fibronectin at 1 to 500 uM after 24 to 48 hrs by MTT assay; type: cell-based

T1 sequence (P05556 whole entry): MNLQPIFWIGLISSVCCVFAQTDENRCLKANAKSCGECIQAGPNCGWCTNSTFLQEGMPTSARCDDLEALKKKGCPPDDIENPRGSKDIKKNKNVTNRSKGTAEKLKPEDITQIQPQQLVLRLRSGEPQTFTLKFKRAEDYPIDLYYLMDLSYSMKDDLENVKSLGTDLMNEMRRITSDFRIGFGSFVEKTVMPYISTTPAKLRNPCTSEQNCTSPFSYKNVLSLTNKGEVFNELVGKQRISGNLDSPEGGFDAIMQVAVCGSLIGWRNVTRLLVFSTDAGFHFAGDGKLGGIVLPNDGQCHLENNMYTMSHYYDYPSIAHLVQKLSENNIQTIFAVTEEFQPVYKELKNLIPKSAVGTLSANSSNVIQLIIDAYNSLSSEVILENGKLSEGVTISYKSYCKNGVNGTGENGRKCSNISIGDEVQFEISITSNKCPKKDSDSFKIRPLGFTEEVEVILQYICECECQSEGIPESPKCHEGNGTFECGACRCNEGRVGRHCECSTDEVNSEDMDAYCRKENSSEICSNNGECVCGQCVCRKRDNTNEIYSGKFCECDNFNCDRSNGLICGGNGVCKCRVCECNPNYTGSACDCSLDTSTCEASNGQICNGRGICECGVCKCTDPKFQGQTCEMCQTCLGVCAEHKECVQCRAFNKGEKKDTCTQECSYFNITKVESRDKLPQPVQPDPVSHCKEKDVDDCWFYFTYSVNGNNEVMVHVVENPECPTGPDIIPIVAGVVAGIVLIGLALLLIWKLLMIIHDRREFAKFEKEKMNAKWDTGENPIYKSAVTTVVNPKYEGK
T1 sequence (P13612 whole entry): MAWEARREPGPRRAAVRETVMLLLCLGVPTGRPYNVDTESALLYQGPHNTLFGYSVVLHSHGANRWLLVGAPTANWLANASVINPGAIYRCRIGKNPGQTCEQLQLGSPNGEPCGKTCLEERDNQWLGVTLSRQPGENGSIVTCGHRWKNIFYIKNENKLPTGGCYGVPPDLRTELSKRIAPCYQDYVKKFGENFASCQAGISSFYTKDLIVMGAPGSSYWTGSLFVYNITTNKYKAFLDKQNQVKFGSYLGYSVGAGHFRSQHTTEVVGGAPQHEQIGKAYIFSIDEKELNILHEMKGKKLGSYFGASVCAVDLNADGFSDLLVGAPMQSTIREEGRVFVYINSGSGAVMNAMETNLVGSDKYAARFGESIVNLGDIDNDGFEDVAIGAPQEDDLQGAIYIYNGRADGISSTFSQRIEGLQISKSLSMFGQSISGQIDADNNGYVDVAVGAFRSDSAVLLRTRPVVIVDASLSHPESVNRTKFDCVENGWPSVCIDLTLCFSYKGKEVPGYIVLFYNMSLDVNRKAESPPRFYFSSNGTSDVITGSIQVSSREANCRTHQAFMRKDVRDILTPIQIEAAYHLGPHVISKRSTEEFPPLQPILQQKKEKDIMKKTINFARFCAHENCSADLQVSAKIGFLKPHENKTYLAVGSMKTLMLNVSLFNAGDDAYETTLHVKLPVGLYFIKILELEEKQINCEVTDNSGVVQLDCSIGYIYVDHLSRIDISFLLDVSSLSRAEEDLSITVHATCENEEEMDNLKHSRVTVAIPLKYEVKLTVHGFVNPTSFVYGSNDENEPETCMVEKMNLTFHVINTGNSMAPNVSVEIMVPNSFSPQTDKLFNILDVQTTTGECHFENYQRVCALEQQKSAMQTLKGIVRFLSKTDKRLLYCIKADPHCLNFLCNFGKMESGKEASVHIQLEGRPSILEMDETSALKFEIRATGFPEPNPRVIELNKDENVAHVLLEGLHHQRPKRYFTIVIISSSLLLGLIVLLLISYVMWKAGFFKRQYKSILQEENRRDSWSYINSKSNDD

SMILES | IC50 (Integrin alpha-4/beta-1 [1]) [µM] | further results
Cc1cccc(C)c1NC(=O)Nc1ccc(CC(=O)O)cc1 | > 1000 | 
Cc1cccc(C)c1NC(=O)Nc1ccc(CC(=O)Nc2ccc(CCC(=O)O)c(OCC(=O)OC(C)(C)C)c2)cc1 | 190 | 
Cc1cccc(C)c1NC(=O)Nc1ccc(CC(=O)Nc2ccc(OCC(=O)OC(C)(C)C)c(CCC(=O)OCc3ccccc3)c2)cc1 | 102 | 
O=C(O)CCc1cc(NC(=O)Cc2ccc(NC(=O)Nc3ccccc3C(F)(F)F)cc2)ccc1O | 209 | 
Cc1cccc(C)c1NC(=O)Nc1ccc(CC(=O)Nc2ccc(OCC(=O)O)c(CCC(=O)NCc3ccccc3)c2)cc1 | 97.7 | 
O=C(O)Cc1ccc(NC(=O)Nc2ccccc2C(F)(F)F)cc1 | > 1000 | 
O=C(O)COc1ccc(NC(=O)Cc2ccc(NC(=O)Nc3ccccc3C(F)(F)F)cc2)cc1CCC(=O)OCc1ccccc1 | 33.1 | Activity (CCRF-CEM [2]): Non-toxic
N=C(N)NCCC[C@H](NC(=O)CN)C(=O)NCC(=O)N[C@@H](CC(=O)O)C(=O)N[C@@H](CO)C(=O)O | > 1000 | 
Cc1cccc(C)c1NC(=O)Nc1ccc(CC(=O)Nc2ccc(OCC(=O)O)c(CCC(=O)OCc3ccc(Cl)cc3)c2)cc1 | 38.9 | 
Cc1cccc(C)c1NC(=O)Nc1ccc(CC(=O)Nc2ccc(OCC(=O)O)c(CCC(=O)O)c2)cc1 | 81.3 | 
Cc1cccc(C)c1NC(=O)Nc1ccc(CC(=O)Nc2ccc(CCC(=O)OCc3ccccc3)c(OCC(=O)O)c2)cc1 | 81.3 | 
CC(C)(C)OC(=O)COc1ccc(NC(=O)Cc2ccc(NC(=O)Nc3ccccc3C(F)(F)F)cc2)cc1CCC(=O)O | 151 | 
Cc1cccc(C)c1NC(=O)Nc1ccc(CC(=O)Nc2ccc(O)c(CCC(=O)O)c2)cc1 | 138 | 
O=C(O)CCc1ccc(NC(=O)Cc2ccc(NC(=O)Nc3ccccc3C(F)(F)F)cc2)cc1O | > 500 | 
Cc1cccc(C)c1NC(=O)Nc1ccc(CC(=O)Nc2ccc(OCC(=O)O)c(CCC(=O)OCc3ccccc3)c2)cc1 | 24.3 | Activity (CCRF-CEM [3]): Non-toxic; Activity (CCRF-CEM [2]): Non-toxic; Activity (Integrin alpha-4/beta-1 [4]): Active
Cc1cccc(C)c1NC(=O)Nc1ccc(CC(=O)Nc2ccc(OCC(=O)O)c(CCC(=O)NCCc3ccccc3)c2)cc1 | 106 | 
CC(C)(C)OC(=O)COc1cc(NC(=O)Cc2ccc(NC(=O)Nc3ccccc3C(F)(F)F)cc2)ccc1CCC(=O)O | 79.4 | 
COC(=O)[C@@H](NC(=O)[C@H](CC(=O)O)NC(=O)[C@H](CC(C)C)NC(=O)Cc1ccc(NC(=O)Nc2ccccc2C(F)(F)F)cc1)C(C)C | 703 | 
O=C(O)COc1cc(NC(=O)Cc2ccc(NC(=O)Nc3ccccc3C(F)(F)F)cc2)ccc1CCC(=O)OCc1ccccc1 | 64.6 | Activity (CCRF-CEM [3]): Non-toxic; Activity (Integrin alpha-4/beta-1 [4]): Active
Cc1cccc(C)c1NC(=O)Nc1ccc(CC(=O)Nc2ccc(OCC(=O)O)c(CCC(=O)OCCc3ccccc3)c2)cc1 | 24.5 | 
Cc1cccc(C)c1NC(=O)Nc1ccc(CC(=O)Nc2ccc(CCC(=O)O)c(O)c2)cc1 | 146 | 
